Data: paper PMC8844822, “SARM1 is a multi-functional NAD(P)ase with prominent base exchange activity, all regulated bymultiple physiologically relevant NAD metabolites” (iScience, 2022)

Legend:
[1] = molecular target: T1, hSARM1 SAM-TIR (Homo sapiens, UniProt Q6SZW1); assay: Base exchange reactions at neutral pH (HPLC); format: biochemical
T1 construct: made in house
T1 sequence (Q6SZW1 409-724): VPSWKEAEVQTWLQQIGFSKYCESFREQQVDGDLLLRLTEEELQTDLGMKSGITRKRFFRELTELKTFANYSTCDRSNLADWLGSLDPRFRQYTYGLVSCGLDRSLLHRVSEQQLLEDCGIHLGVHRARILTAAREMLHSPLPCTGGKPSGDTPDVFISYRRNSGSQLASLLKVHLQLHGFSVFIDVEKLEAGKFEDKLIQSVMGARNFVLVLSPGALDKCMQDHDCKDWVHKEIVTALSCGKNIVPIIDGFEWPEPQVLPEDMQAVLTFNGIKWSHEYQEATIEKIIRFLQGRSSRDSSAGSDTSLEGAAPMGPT
Procedure: (§1) Multiple time stops from individual assays as above were analyzed for linearity, then extents of hydrolysis (white bars), cyclization (red bars), or base exchange (black bars) were calculated from each corresponding product as shown in Figure 1B and STAR methods. […] See also Figures S3–S5, and Table S1
(§2) Rates were calculated as follows.

[2] = molecular target: T2, Aplysia californica ADP ribosyl cyclase (Aplysia californica, UniProt P29241); assay: Base exchange reactions at neutral pH (HPLC); format: biochemical; design: purchased Merck A8950
T2 sequence (P29241 25-282): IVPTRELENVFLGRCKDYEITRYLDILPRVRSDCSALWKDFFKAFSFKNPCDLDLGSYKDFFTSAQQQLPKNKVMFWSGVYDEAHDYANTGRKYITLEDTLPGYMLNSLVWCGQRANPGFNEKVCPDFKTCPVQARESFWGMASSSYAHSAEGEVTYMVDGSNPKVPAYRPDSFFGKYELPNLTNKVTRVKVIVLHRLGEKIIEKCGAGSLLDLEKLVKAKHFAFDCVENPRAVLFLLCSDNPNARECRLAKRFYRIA
Procedure: as §1, §2

[3] = test system: DRG neurons; assay: Base exchange products in DRG explant cultures (metabolite extraction, HPLC); format: cell-based, mouse; conditions: 4 h; for SARM1 dependence of base exchange product formation: wild-type vs Sarm1^−/− DRG cultures
Procedure: Dorsal Root Ganglia (DRG) were dissected from C57BL/6J (RRID IMSR_JAX:000664) or Sarm1^-/- (RRID MGI_3765957) E13.5-E14.5 mouse embryos. Explants were cultured in 35 mm tissue culture dishes pre-coated with poly-L-lysine (20 μg/ml for 1 h; Merck) and laminin (20 μg/ml for 1 h; Merck) in Dulbecco's Modified Eagle's Medium (DMEM, Gibco) with 1 % penicillin/streptomycin (Thermo Fisher Scientific), 33 ng/ml 2.5S NGF (Thermo Fisher Scientific) and 2% B27 (Gibco). 4 μM aphidicolin (Merck) was used to reduce proliferation and viability of small numbers of non-neuronal cells ([Loreto and Gilley, 2020]).
Wild-type and Sarm1^−/− DRG neurons were treated at DIV7 with 3-acetylpyridine (AcPyr) or vehicle (H2O), or with vacor or vehicle (H2O with 4% 1 N HCl). Proper drug concentrations and times of collection were determined first by dedicated experiments (see Figure 5A). At the indicated time-point, wild-type and Sarm1^−/− DRG whole explant cultures (typically 30-60 ganglia per condition) were collected, washed in ice-cold PBS and rapidly frozen in dry ice, and stored at −80°C until processed. Next extraction was carried out as reported by grinding in liquid N2, resuspending in HClO4 containing cAMP as internal standard for recovery calculations, sonicating, and neutralizing with K2CO3 ([Mori et al., 2014]). Next HPLC analyses to detect and measure the base exchange formed products, i.e. AcPyrAD or the vacorylated compound VAD, were carried out as described above in the paragraph “NADase assays”. In all samples, recovery yields from spiked cAMP were at least 96%. Furthermore, pellets after extraction of soluble nucleotides were treated as reported ([Mori et al., 2014]) to get reference protein contents to normalize the nucleotide levels. Protein concentrations were determined using the Bradford Reagent (Merck).

[4] = NAD […] alone or + AcPyr 2 mM / Vacor 0.5 mM / Na 2 mM
[5] = NADP […] alone or + AcPyr 2 mM / Vacor 0.5 mM / Na 2 mM

Row | Structure (SMILES) | rate [1, 4] [mU/mg] | rate [1, 5] [mU/mg] | rate [2, 4] [mU/mg] | rate [2, 5] [mU/mg] | AcPyrAD formed ([3]; wild-type DRGs, AcPyr 250 μM) | SARM1 dependence of base exchange product formation [3] | VAD formed ([3]; wild-type DRGs, vacor 50 μM) [nmol/mg]
1 | CC(=O)c1cccnc1 [AcPyr, 3-acetylpyridine] | 427.3 ±76.5 | 261.7 ±60.9 | 13996 ±624 | 15779 ±5215 | 0.446 ± 0.021 nmol per mg of protein | not in treated Sarm1^−/− cultures | 
2 | O=C(NCc1cccnc1)Nc1ccc([N+](=O)[O-])cc1 [Vacor, 1-(4-nitrophenyl)-3-(pyridin-3-ylmethyl)urea] | 284.8 ±51.1 | 266.0 ±54.1 | 12748 ±2593 | 8132 ±2201 |  | found only in wild-type DRGs | ~0.14
